Results reported in patent US20120088791A1, “AMIDOBIPIPERIDINECARBOXYLATE M1 ALLOSTERIC AGONISTS, ANALOGS AND DERIVATIVES THEREOF, AND METHODS OF MAKING AND USING SAME” (VANDERBILT UNIVERSITY, priority 2009, published 2012).

Assays:
[1] = test system: Aβ 1-40 and 1-42 production; conditions: in vitro; cited from earlier work
[2] = multiple preclinical models; cited from earlier work
[3] = preclinical and clinical studies; cited from earlier work
[4] = biological target: T1, rM1 (Rattus norvegicus, UniProt P08482); assay: Calcium mobilization assay, CHO-K1 cells stably expressing rM1; type: cell-based; conditions: Table 1, R-enantiomers; for Emax: RM1, read-out: Efficacy (% Max ACh); for EC50: agonist-evoked calcium flux, read-out: Potency (EC50)
T1 construct: host or cells: CHO-K1
T1 sequence (P08482 1-460): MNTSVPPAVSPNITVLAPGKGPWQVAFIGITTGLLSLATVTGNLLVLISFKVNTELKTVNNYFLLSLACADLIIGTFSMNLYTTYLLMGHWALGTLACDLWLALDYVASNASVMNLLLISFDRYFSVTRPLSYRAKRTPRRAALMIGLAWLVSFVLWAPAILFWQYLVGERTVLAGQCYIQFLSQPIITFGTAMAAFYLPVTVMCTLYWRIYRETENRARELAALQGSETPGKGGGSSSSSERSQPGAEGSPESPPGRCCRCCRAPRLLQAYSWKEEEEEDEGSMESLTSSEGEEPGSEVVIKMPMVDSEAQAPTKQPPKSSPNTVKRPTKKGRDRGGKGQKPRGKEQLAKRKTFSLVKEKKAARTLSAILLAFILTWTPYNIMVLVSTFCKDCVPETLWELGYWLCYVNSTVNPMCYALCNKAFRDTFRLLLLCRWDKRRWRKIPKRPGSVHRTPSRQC
Excerpt: (§1) Cell culture and transfections. Chinese hamster ovary (CHO-K1) cells stably expressing rat (r)M1 were purchased from the American Type Culture Collection and cultured according to their indicated protocol. CHO cells stably expressing human (h)M2, hM3, and hM5 were used and described previously (Levey et al., 1991); rM4 cDNA, provided by T. I. Bonner (National Institutes of Health, Bethesda, Md.), was used to stably transfect CHO-K1 cells purchased from the American Type Culture Collection using Lipofectamine2000. To make stable hM2 and rM4 cell lines for use in calcium mobilization assays, these cells also were stably transfected with a chimeric G-protein (Gqi5) using Lipofectamine 2000. M1, hM3, and hM5 cells were grown in Ham's F-12 medium containing 10% heat-inactivated fetal bovine serum (FBS), 20 mM HEPES, and 50 μg/ml G418 sulfate. hM2-Gqi5 cells were grown in the same medium also containing 500 μg/ml Hygromycin B. Stable rM4-Gqi5 cells were grown in DMEM containing 10% heat-inactivated FBS, 20 mM HEPES, 400 μg/ml G418 sulfate, and 500 μg/ml Hygromycin B. The rat M1 Y381A orthosteric mutant receptor cDNA was generated using the Quik-Change site-directed mutagenesis kit (Stratagene) and verified by sequencing. CHO-K1 cells were stably transfected with this cDNA using Lipofectamine2000 and screened for expression based on calcium mobilization in response to the allosteric M1 agonist N-desmethylclozapine.
Calcium mobilization assays. For measurement of agonist-evoked increases in intracellular calcium, CHO-K1 cells stably expressing muscarinic receptors were plated in 100 μl of growth medium at 5×10^4 (rM1, hM3, and hM5) or 6×10^4 cells per well (rM1 Y381A, hM2, and rM4) in Costar 96-well black-walled, tissue culture (TC)-treated, clear-bottom plates (Fisher). Cells were incubated overnight at 37° C. and 5% CO2. The next day, medium was removed from the cells, and they were incubated with 50 μl of 2 μM Fluo-4 AM diluted in assay buffer [HBSS (Invitrogen) supplemented with 20 mM HEPES and 2.5 mM probenecid, pH 7.4] for 1 h at 37° C. Dye was removed and replaced with 45 μl of assay buffer. Agonists were diluted into assay buffer at a 2× concentration and applied to cells using the automated system at 19 s into the 130 s protocol. Calcium flux was measured over time as an increase in fluorescence (fold over basal) using the Flexstation plate reader (Molecular Devices).

[5] = biological target: T2, hM5 (Homo sapiens, UniProt P08912); assay: Calcium mobilization assay, CHO cells stably expressing hM5; type: cell-based; conditions: selectivity for M1; read-out: potency (EC50) versus M5
T2 construct: expressed in transfected cells; host or cells: CHO cells
T2 sequence (P08912 1-532): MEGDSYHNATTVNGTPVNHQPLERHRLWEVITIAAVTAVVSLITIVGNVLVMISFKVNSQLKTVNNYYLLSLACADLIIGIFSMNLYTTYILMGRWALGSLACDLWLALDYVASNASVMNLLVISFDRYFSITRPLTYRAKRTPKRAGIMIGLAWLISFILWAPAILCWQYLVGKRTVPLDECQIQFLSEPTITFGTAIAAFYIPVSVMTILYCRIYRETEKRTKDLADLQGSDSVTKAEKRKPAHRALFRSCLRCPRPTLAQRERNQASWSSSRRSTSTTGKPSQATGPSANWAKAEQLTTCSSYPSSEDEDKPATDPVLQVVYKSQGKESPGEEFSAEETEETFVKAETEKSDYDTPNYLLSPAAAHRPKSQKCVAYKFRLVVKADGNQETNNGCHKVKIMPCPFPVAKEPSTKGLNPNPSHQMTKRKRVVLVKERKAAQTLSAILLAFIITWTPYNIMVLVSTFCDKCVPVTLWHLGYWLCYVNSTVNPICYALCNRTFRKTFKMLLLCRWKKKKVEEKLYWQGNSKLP
Excerpt: as §1, with “CHO-K1 cells were stably transfected with this cDNA using Lipofectamine2000 and screened for expression based on calcium mobilization in response to the allosteric M1 agonist N-desmethylclozapine.” left out
(§2) Calcium mobilization assays. […] Calcium flux was measured over time as an increase in fluorescence (fold over basal) using the Flexstation plate reader (Molecular Devices).

[6] = biological target: T3, hM3 (Homo sapiens, UniProt P20309); assay: Calcium mobilization assay, CHO cells stably expressing hM3; type: cell-based; conditions: selectivity for M1; read-out: potency (EC50) versus M3
T3 construct: expressed in transfected cells; host or cells: CHO cells
Excerpt: as §1, with “CHO-K1 cells were stably transfected with this cDNA using Lipofectamine2000 and screened for expression based on calcium mobilization in response to the allosteric M1 agonist N-desmethylclozapine.” left out
as §2

[7] = biological target: T4, rM4 (Rattus norvegicus, UniProt P08485); assay: Calcium mobilization assay, CHO-K1 cells stably expressing rM4-Gqi5; type: cell-based; conditions: selectivity for M1; read-out: potency (EC50) versus M4
T4 construct: expressed in transfected cells; host or cells: CHO-K1 cells, also stably transfected with chimeric G-protein Gqi5
T4 sequence (P08485 1-478): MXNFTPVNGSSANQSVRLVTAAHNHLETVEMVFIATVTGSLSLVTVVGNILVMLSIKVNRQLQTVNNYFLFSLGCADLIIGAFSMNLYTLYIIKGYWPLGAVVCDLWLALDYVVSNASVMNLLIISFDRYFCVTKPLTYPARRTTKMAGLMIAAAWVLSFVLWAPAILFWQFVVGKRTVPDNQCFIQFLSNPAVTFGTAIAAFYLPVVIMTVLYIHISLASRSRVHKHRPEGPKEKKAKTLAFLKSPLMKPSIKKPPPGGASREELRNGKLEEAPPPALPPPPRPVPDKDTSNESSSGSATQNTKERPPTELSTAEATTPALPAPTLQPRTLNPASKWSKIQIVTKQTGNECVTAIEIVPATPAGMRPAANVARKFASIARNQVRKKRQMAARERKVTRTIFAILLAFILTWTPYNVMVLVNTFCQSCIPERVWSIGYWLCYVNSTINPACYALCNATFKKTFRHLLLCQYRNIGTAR
Excerpt: as §1, with “CHO-K1 cells were stably transfected with this cDNA using Lipofectamine2000 and screened for expression based on calcium mobilization in response to the allosteric M1 agonist N-desmethylclozapine.” left out
as §2

[8] = biological target: T5, hM2 (Homo sapiens, UniProt P08172); assay: Calcium mobilization assay, CHO cells stably expressing hM2-Gqi5; type: cell-based; conditions: selectivity for M1; read-out: potency (EC50) versus M2
T5 construct: expressed in transfected cells; host or cells: CHO cells, also stably transfected with chimeric G-protein Gqi5
T5 sequence (P08172 1-466): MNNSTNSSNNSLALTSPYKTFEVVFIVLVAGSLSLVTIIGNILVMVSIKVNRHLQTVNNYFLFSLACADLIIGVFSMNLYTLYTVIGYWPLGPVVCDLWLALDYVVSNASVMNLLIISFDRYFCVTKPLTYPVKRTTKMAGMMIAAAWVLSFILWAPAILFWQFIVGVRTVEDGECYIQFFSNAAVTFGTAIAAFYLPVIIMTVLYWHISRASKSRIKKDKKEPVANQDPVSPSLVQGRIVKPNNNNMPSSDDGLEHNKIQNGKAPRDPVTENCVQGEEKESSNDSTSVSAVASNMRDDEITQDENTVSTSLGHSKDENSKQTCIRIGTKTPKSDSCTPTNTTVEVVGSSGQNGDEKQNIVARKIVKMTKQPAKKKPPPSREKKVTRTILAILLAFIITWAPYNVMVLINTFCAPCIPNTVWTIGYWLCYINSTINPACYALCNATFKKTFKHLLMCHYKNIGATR
Excerpt: as §1, with “CHO-K1 cells were stably transfected with this cDNA using Lipofectamine2000 and screened for expression based on calcium mobilization in response to the allosteric M1 agonist N-desmethylclozapine.” left out
as §2

T3 sequence (P20309 whole entry): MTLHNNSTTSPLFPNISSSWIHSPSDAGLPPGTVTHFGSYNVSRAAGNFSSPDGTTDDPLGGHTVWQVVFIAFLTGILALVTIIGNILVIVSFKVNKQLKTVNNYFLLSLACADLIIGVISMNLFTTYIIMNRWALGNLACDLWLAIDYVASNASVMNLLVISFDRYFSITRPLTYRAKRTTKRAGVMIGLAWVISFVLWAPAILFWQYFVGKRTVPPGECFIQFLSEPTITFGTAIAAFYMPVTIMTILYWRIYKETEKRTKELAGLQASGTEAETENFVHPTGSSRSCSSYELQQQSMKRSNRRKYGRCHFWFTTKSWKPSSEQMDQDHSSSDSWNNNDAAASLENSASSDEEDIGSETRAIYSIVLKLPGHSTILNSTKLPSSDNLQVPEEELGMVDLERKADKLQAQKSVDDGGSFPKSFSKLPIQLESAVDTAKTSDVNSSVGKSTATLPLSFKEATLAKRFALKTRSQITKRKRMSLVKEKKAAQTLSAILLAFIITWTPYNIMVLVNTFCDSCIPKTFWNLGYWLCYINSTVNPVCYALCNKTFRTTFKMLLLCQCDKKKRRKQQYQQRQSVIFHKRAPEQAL

| Emax [4] [%] | EC50 [4] [nM] | EC50 [5] [µM] | EC50 [6] [µM] | EC50 [7] [µM] | EC50 [8] [µM] | SMILES | effect on Aβ 1-40 and 1-42 production [1] | efficacy in preclinical models of schizophrenia [2] | efficacy with regard to positive, negative and cognitive symptoms [3] |
| --- | --- | --- | --- | --- | --- | --- | --- | --- | --- |
|  |  |  |  |  |  | Cc1ccccc1CN1CCC(N2CCC(n3c(=O)[nH]c4ccccc43)CC2)CC1 [TBPB] | decrease Aβ 1-40 and 1-42 production in vitro | demonstrated efficacy |  |
|  |  |  |  |  |  | CCCCCCOc1nsnc1C1=CCCN(C)C1 [Xanomeline] |  |  | proved efficacious |
| 91 | 127 | > 50 | > 50 | > 50 | > 50 | CCOC(=O)N1CCC(N2CCC[C@@H](NC(=O)c3ccccc3)C2)CC1 [(R)-ethyl 3-benzamido-1,4′-bipiperidine-1′-carboxylate] |  |  |  |
| 96 | 88 | > 50 | > 50 | > 50 | > 50 | CCOC(=O)N1CCC(N2CCC[C@@H](NC(=O)c3ccccc3C)C2)CC1 [(R)-ethyl 3-(2-methylbenzamido)-1,4′-bipiperidine-1′-carboxylate] |  |  |  |
